Measurements as given in publication PMC7156612, “Olinciguat, an Oral sGC Stimulator, Exhibits Diverse Pharmacology Across Preclinical Models of Cardiovascular, Metabolic, Renal, and Inflammatory Disease” (Frontiers in Pharmacology, 2020).
Like-named read-outs stand apart in the source and are kept apart here.

Experiments:
[1] = Plasma protein binding (equilibrium dialysis), human; format: in vitro ADME; settings: 1 and 10 μM, equilibrium dialysis 18 h, read-out: bound to plasma proteins (converted)
Method: Concentrated (10 mM) DMSO stock solutions of olinciguat were diluted to 1 and 10 μM in 2.5 ml of rat (male and female Sprague Dawley) and human plasma. Concentrated [^14C]-labeled olinciguat (1 μl,1 mCi/ml stock concentration) was spiked into each sample and mixed by vortexing. Triplicate 500 μl aliquots of plasma containing [^14C]-labeled olinciguat were transferred to a Rapid Equilibrium Dialysis system and dialyzed (molecular weight cut-off ~8000 Da) against 500 μl of phosphate-buffered saline (PBS) at room temperature for 18 h. Radioactivity of [^14C]-labeled olinciguat in PBS and plasma samples was measured using liquid scintillation counting.

sGC = biological target: T1, sGC (Homo sapiens, UniProt Q02108+Q02153); assay: sGC whole cell assay (HEK-293, cGMP production); format: cell-based
T1 construct: HEK-293 cells endogenously expressing sGC were treated with olinciguat; host or cells: HEK-293
T1 sequence (Q02153 1-619): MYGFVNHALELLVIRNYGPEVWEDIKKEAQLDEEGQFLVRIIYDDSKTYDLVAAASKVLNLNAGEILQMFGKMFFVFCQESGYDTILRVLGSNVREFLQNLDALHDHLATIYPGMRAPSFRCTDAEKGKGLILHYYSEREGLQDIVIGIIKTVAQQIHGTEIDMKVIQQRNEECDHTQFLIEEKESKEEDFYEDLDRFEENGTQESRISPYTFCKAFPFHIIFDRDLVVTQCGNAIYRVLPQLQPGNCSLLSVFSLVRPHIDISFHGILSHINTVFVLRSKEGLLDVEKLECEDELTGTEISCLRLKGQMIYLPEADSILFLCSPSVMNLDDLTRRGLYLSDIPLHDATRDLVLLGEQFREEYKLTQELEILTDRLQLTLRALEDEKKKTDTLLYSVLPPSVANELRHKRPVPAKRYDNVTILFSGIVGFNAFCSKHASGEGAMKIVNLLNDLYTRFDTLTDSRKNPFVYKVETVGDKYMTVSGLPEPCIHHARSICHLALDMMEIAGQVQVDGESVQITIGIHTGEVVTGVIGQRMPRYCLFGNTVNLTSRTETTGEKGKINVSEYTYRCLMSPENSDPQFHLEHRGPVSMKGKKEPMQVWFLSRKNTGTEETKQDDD
T1 sequence (Q02108 1-690): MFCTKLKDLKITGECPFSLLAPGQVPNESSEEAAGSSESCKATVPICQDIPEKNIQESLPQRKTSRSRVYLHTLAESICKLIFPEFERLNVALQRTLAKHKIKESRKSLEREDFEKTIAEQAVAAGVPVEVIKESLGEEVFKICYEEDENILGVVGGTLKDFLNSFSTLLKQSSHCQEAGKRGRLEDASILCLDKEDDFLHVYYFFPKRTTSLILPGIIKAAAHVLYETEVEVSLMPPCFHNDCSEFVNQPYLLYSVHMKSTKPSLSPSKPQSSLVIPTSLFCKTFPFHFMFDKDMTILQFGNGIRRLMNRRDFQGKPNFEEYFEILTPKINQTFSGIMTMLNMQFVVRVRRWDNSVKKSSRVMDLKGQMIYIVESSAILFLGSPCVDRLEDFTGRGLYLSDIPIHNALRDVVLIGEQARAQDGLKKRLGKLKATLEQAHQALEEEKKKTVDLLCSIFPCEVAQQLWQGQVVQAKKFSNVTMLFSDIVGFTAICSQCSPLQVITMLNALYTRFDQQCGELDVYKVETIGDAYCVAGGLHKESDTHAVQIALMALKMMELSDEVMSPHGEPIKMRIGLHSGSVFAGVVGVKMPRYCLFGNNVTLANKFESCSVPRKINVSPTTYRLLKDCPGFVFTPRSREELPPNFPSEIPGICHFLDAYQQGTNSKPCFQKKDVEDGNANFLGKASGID
Method: The human embryonic kidney (HEK)-293 whole cell assay was performed as described ([Tobin et al., 2018]). Briefly, HEK-293 cells (ATCC, Manassas, VA, #CRL-1573) were maintained in Dulbecco's modified Eagle's medium (DMEM) containing serum and antibiotics. Assays were performed in 384-well plates at 37°C by preincubating with 0.5 mM 3-isobutyl-1-methylxanthine (IBMX) in Hanks' Balanced Salt Solution (HBSS) containing calcium and magnesium for 15 min, then adding olinciguat with or without the NO donor diethylenetriamine NONOate (DETA), followed by a 20-min incubation. Cells were lysed with ice-cold 10% acetic acid then centrifuged, and cGMP levels in supernatants were determined by reverse-phase liquid chromatography with tandem mass spectrometry (LC-MS/MS). Concentration-response data were fit using a four-parameter fit (log(agonist) vs response – variable slope) using GraphPad Prism v.7.

fraction unbound at 18 h [1]: 0.0199 | EC50 (sGC; HEK-293 cells endogenously expressing sGC, in the presence of 10 µM DETA, geometric mean of 14 experiments, 95% CI 42.7 to 105 nM, read-out: EC50, cGMP production): 73.8 nM | EC50 (sGC; Table 2 summary, 10 µM DETA, read-out: Human cellular sGC assay (HEK-293) EC50, olinciguat concentration (range = 95% CI)): 42.7 to 105 nM
Compound: NC(=O)[C@](O)(CNc1nc(-c2cc(-c3ccon3)n(Cc3ccccc3F)n2)ncc1F)C(F)(F)F [olinciguat, (R)-3,3,3-trifluoro-2-(((5-fluoro-2-(1-(2-fluorobenzyl)-5-(isoxazol-3-yl)-1H-pyrazol-3-yl)pyrimidin-4-yl)amino)methyl)-2-hydroxypropanamide]
